# Measured values taken from PMC11068671, “New-generation biofilm effective antimicrobial peptides and a real-time anti-biofilm activity assay: CoMIC” (Applied Microbiology and Biotechnology, 2024).
# Non-standard residues stand in square brackets, D forms with d. Residues, ends and D or L forms follow the SMILES beside them.
# Columns and labels:
# [1] = test system: S. aureus 29213 biofilm; test: Real-time monitoring of antibiofilm activity, CoMIC method; type: cell-based
# Description: (§1) 1:2 serial dilutions of ciprofloxacine (200–0 µg/mL) and sodium hypochlorite (5–0%) were prepared in Congo Red Broth media with sucrose. S. aureus 29213 were added into culture media with a final concentration of 1×10^6 Colony-forming unit/mL (CFU/mL). All cultures were performed as triplicate and incubated at 37°C overnight and fluorescence measurements were conducted by using Varioscan (Thermo, USA). The excitation/emission wavelengths were used as 525/625 nm. As a replica plate, bacteria in the same broth media, except Congo Red were cultured and analyzed with conventional Crystal Violet (CV) method. For this purpose, the bacterial cultures were removed, and wells were washed with distilled water. There was 200 µl of 1% CV dye added to each well and incubated at room temperature for 15 min in the dark. Then, CV dye was removed, and wells were washed with water. After the plate was dry, 33% acetic acid was added into wells to dissolve the dye and wells were spectrophotometrically read by Varioscan (Thermo, USA) at 590 nm (Stepanović et al. [2000]).
# [2] = test system: S. aureus 29213 biofilm; test: Antibiofilm activity, crystal violet (CV) replica plate; type: cell-based; conditions: CV method
# Description: as §1
# [3] = test system: S. aureus ATCC25923; type: cell-based
# Text: (§2) NET1, NET2, NET3, and NET4 peptide antibiotics were used in the experiments. For the purpose of the study, both clinical isolates Methicillin-Resistant S. aureus (MRSA), Vancomycin-resistant Enterococcus (VRE), E. coli ER2566, E. coli 13846 bacteria and ATCC strains S. aureus and E. coli bacteria were used in the MIC study. All strains used in this study have been deposited in a strain collection of the Research Laboratory of Acibadem Mehmet Ali Aydinlar University. For experiment 0.5 McFarland bacterial suspension was prepared in Müeller Hinton Broth (MHB) media. In the 96-well plate, serial dilutions of peptide antibiotics starting from 512 to 0 μg/mL were made in MHB media and added 5 µl of bacterial suspensions. After incubated overnight at 37°C, results were evaluated according to turbidity (Teh et al. [2017]). Ampicillin was used as positive controls.
# [4] = test system: E. coli ER2566; type: cell-based
# Text: as §2
# [5] = test system: E. coli NTCC13846; type: cell-based
# Text: as §2
# [6] = test system: S. aureus ATCC29213; type: cell-based
# Text: as §2
# [7] = test system: E. coli ATCC25922; type: cell-based
# Text: as §2
# [8] = test system: VRE; type: cell-based, Vancomycin-resistant Enterococcus
# Text: as §2
# [9] = test system: HaCaT cell line; test: in vitro; type: cell-based
# Text: (§3) MTT Cell Proliferation Kit (Sigma), a colorimetric method, was used for this test to evaluate the damage that peptides can cause in eukaryotic cells and all cell lines used in this study have been deposited in a collection of the Research Laboratory of Acibadem Mehmet Ali Aydinlar University. The cell lines of 3T3 (ATCC CRL-1658) and HaCaT (ATCC PCS-200-011) were revived under appropriate culture conditions and made ready for the experiment. The final concentration of peptides reached 64 to 0.5 μg/mL. Samples were worked in triplicates for each concentration. Cells incubated without peptide-treatment under the same conditions were used as a control. Magainin II, a known natural AMP that has no cytotoxic effects, was used as a positive control (Bacalum and Radu [2015]). The results were analyzed by reading them with a 96-well plate reader at 550 and 690 nm.
# [10] = test system: 3T3 cell line; test: in vitro; type: cell-based
# Text: as §3
# [11] = in vitro; type: cell-based
# Text: as §3
# [12] = test system: erythrocytes; type: cell-based
# Description: Hemolytic activity assays were carried out using erythrocytes, using triton X-100 as lysis control agent. Hemolytic activities were analyzed by reading each well with a plate reader spectrophotometer device at 414 nm and the % lysis rate was calculated in Microsoft Excel according to the following formula (Eren et al. [2008]). Lysis%=[OD414-OD414blank]/[OD414totallysis-OD414blank]×100
# [13] = target: Proteinase K (Parengyodontium album, UniProt P06873); test: Protease resistance, Proteinase K treatment with HPLC analysis; type: in vitro ADME; conditions: analytical HPLC
# Proteinase K, sequence (P06873 106-384): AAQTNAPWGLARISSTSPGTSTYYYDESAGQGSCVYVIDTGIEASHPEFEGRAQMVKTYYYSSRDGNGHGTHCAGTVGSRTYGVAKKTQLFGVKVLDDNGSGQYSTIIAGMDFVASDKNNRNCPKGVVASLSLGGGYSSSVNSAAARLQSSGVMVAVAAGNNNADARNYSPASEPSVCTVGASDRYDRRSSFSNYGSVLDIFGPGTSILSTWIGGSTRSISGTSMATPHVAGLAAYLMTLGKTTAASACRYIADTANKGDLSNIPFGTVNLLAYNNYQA
# Description: Proteinase K was used for testing the resistance of the designed peptides to proteases, since Proteinase K, a serine protease with broad-spectrum cleavage activity that preferentially cleaves aliphatic and aromatic amino acid residues, is widely used in the literature to determine the protease resistance of antimicrobial peptides (Lucio et al. [2017], Wang et al. [2019]). Afterwards, HPLC characterization was performed to understand the effect of Proteinase K on peptides.
# [14] = test system: MRSA; type: cell-based, Methicillin-Resistant S. aureus
# Text: as §2
# [15] = test system: MRSA biofilm; test: Antibiofilm activity, conventional crystal violet (CV) method; type: cell-based, Methicillin-resistant S. aureus; conditions: for concentration that could be enough to inhibit the biofilms completely: allowing for deviation of about 16.7 in non-specific CV binding; for Peptide concentration inhibiting the biofilm at 100%, Crystal Violet: peptides added at the very beginning of culture
# Description: There was 90 µL of 10^6 CFU/mL MRSA in MHB media with fructose transferred into wells. Then, 10 µL of 1:2 serial dilutions of the antimicrobial peptides (1280–0 µg/mL) was added in wells. So that, final concentrations of peptides were 128–0 µg/mL. Plates were incubated at 37°C overnight. After overnight incubation, they were analyzed with conventional CV method. For this purpose, the bacterial cultures were removed, and wells were washed with distilled water. 200 µl of 1% CV dye was added to each well and incubated at room temperature for 15 min in the dark. Then, CV dye was removed, and wells were washed with water. After dried the plate in an oven at 45–50°C, 33% acetic acid was added into wells to dissolve the dye and wells were spectrophotometrically read by Varioscan (Thermo, USA) at 590 nm (Stepanović et al. [2000]). Biofilm inhibiton rates (%) were calculated by the following formula (Liu et al. [2021]): (1-A590ofwellstreatedwithpeptides/[…])×100
# Before this calculation, the values obtained from all wells were subtracted from the value from the empty wells (Blank).
# [16] = test system: MRSA biofilm; test: Antibiofilm activity, CoMIC method; type: cell-based, Methicillin-resistant S. aureus; conditions: peptides added just before the start of biofilm formation
# Description: Ninety microliters of 0.5 McF Methicillin-resistant S. aureus (MRSA) (1.5×10^8 CFU/mL) in Congo Red Broth media with fructose was transferred into wells. Plates were incubated at 37°C. At the time just before the start of biofilm formation as optimized in Fig. 4, 10 µL of 1:2 serial dilutions of the antimicrobial peptides (2560–0 µg/mL) was added in wells. So that, final concentrations of peptides were 256–0 µg/mL. Incubation of media continued overnight. Then, wells were evaluated according to their black color formation.
# [17] = S. aureus 29213, added at the very beginning of the biofilm culture
# [18] = S. aureus 29213, added just before the start of biofilm formation
# [19] = S. aureus 29213, added in the very beginning
# [20] = S. aureus 29213, added just before biofilm formation
"MIC for biofilms [1, 17]","MIC for biofilms [1, 18]","MIC for biofilms [2, 19]","MIC for biofilms [2, 20]",SMILES,MIC [3],MIC [4],MIC [5],MIC [6],MIC [7],MIC [8],IC50 value as times the MIC value [9],therapeutic index for cytotoxic activities [9],therapeutic index for cytotoxic activities [10],IC50 ([11]; human),IC50 ([11]; mouse),therapeutic index for hemolytic activities [12],resistance to proteases (HPLC after proteinase K treatment) [13],MIC [14],"Peptide concentration inhibiting the biofilm at 100%, Crystal Violet [15]","Peptide concentration inhibiting the biofilm at 100%, CoMIC [16]",other results
1.25%,1.25%,1.25%,5%,[Na+].[O-]Cl [sodium hypochlorite],,,,,,,,,,,,,,,,,
,,,,"CC(C)C[C@H](NC(=O)[C@H](N)CCCNC(=N)N)C(=O)N[C@@H](CC(C)C)C(=O)N[C@@H](CC(C)C)C(=O)N[C@H](CCCNC(=N)N)C(=O)N[C@@H](CC(C)C)C(=O)N[C@@H](CC(C)C)C(=O)N[C@H](CCCNC(=N)N)C(=O)N[C@H](CCCNC(=N)N)C(=O)N[C@@H](CC(C)C)C(=O)N[C@@H](CC(C)C)C(=O)N[C@H](CCCNC(=N)N)C(=O)N[C@@H](CC(C)C)C(=O)N[C@@H](CC(C)C)C(=O)N[C@@H](CC(C)C)C(=O)N[C@H](CCCNC(=N)N)C(N)=O [NET3, RLLLRLLRRLLRLLLR-NH2] (H-[dR]LLL[dR]LL[dR][dR]LL[dR]LLL[dR]-NH2; N-terminus assumed)",2 µg/mL,0.5 µg/mL,2 µg/mL,2 µg/mL,4 µg/mL,0.5 µg/mL,16-32 times,32,16,64 µg/mL,32 µg/mL,32,not fractionated by proteases,2 µg/mL,4 µg/mL,128 µg/mL,HC50 value as times the MIC value [12]: 16–32 times; concentration that could be enough to inhibit the biofilms completely ([15]; CV method): less than 1 µg/mL
,,,,"CC(C)C[C@H](NC(=O)[C@H](CC(C)C)NC(=O)[C@H](CC(C)C)NC(=O)[C@H](CCCNC(=N)N)NC(=O)[C@H](CC(C)C)NC(=O)[C@H](CC(C)C)NC(=O)[C@H](CCCNC(=N)N)NC(=O)[C@H](CCCNC(=N)N)NC(=O)[C@H](CC(C)C)NC(=O)[C@H](CC(C)C)NC(=O)[C@H](CCCNC(=N)N)NC(=O)[C@H](CC(C)C)NC(=O)[C@H](CC(C)C)NC(=O)[C@H](CC(C)C)NC(=O)[C@@H](N)CCCNC(=N)N)C(=O)N[C@@H](CCCNC(=N)N)C(N)=O [NET2, RLLLRLLRRLLRLLLR-NH2] (H-RLLLRLLRRLLRLLLR-NH2; N-terminus assumed)",32 µg/mL,4 µg/mL,64 µg/mL,64 µg/mL,64 µg/mL,2 µg/mL,2-4 times,2,2,> 128 µg/mL,> 128 µg/mL,1,completely degraded,64 µg/mL,128 µg/mL,>256 µg/mL,HC50 value as times the MIC value [12]: 2–8 times; concentration that provided over 50% biofilm inhibition ([15]; CV method): 64 µg/mL
,,,,"CC(C)C[C@@H](NC(=O)[C@H](N)CCCNC(=N)N)C(=O)N[C@H](CC(C)C)C(=O)N[C@H](CC(C)C)C(=O)N[C@H](CCCNC(=N)N)C(=O)N[C@H](CC(C)C)C(=O)N[C@H](CC(C)C)C(=O)N[C@H](CCCNC(=N)N)C(=O)N[C@H](CCCNC(=N)N)C(=O)N[C@H](CC(C)C)C(=O)N[C@H](CC(C)C)C(=O)N[C@H](CCCNC(=N)N)C(=O)N[C@H](CC(C)C)C(=O)N[C@H](CC(C)C)C(=O)N[C@H](CC(C)C)C(=O)N[C@H](CCCNC(=N)N)C(N)=O [NET4, RLLLRLLRRLLRLLLR-NH2] (H-[dR][dL][dL][dL][dR][dL][dL][dR][dR][dL][dL][dR][dL][dL][dL][dR]-NH2; N-terminus assumed)",16 µg/mL,1 µg/mL,32 µg/mL,16 µg/mL,8 µg/mL,2 µg/mL,4-16 times,8,8,> 128 µg/mL,> 128 µg/mL,4,not fractionated by proteases,16 µg/mL,128 µg/mL,>256 µg/mL,cytotoxicity at 64 µg/ml ([11]; human): > 50%; concentration that could be enough to inhibit the biofilms completely ([15]; CV method): 64 µg/mL
50 µg/mL,> 200 µg/mL,12.5 µg/mL,> 200 µg/mL,O=C(O)c1cn(C2CC2)c2cc(N3CCNCC3)c(F)cc2c1=O [ciprofloxacin],,,,,,,,,,,,,,,,,
